# Experimental data: ChEMBL document CHEMBL3046004, “Esterase-mediated resistance to pyrethroids in field populations of Helicoverpa armigera (Lepidoptera: Noctuidae) from Central Africa” (2009)
# Assays:
# Format in all cases: functional
# Helicoverpa armigera [1] = assay: Resistance factor, ratio of LD50 for fourth-instar larval stage of Helicoverpa armigera field strain Tchollire to LD50 for fourth-instar larval stage of pyrethroid-susceptible Helicoverpa armigera laboratory strain BK-77
# Helicoverpa armigera [2] = assay: Resistance factor, ratio of LD50 for fourth-instar larval stage of Helicoverpa armigera field strain Pitoa isolated from tomato plant to LD50 for fourth-instar larval stage of pyrethroid-susceptible Helicoverpa armigera laboratory strain BK-77
# Helicoverpa armigera [3] = assay: Insecticidal activity against fourth-instar larval stage of Helicoverpa armigera field strain Tchollire isolated from cotton plant assessed as mortality applied topically onto thorax measured after 48 hr
# Helicoverpa armigera [4] = assay: Insecticidal activity against fourth-instar larval stage of Helicoverpa armigera field strain Gaschiga isolated from tomato plant assessed as mortality applied topically onto thorax measured after 48 hr
# Helicoverpa armigera [5] = assay: Resistance factor, ratio of LD50 for fourth-instar larval stage of Helicoverpa armigera field strain Ngong to LD50 for fourth-instar larval stage of pyrethroid-susceptible Helicoverpa armigera laboratory strain BK-77
# Helicoverpa armigera [6] = assay: Resistance factor, ratio of LD50 for fourth-instar larval stage of pyrethroid-resistance Helicoverpa armigera laboratory strain GS-RR06 to LD50 for fourth-instar larval stage of pyrethroid-susceptible Helicoverpa armigera laboratory strain BK-77
# Helicoverpa armigera [7] = assay: Insecticidal activity against fourth-instar larval stage of Helicoverpa armigera field strain Pitoa isolated from tomato plant assessed as mortality applied topically onto thorax measured after 48 hr
# Helicoverpa armigera [8] = assay: Insecticidal activity against fourth-instar larval stage of pyrethroid-susceptible Helicoverpa armigera laboratory strain BK-77 assessed as mortality applied topically onto thorax measured after 48 hr
# Helicoverpa armigera [9] = assay: Insecticidal activity against fourth-instar larval stage of pyrethroid-resistance Helicoverpa armigera laboratory strain GS-RR06 assessed as mortality applied topically onto thorax measured after 48 hr
# Helicoverpa armigera [10] = assay: Resistance factor, ratio of LD50 for fourth-instar larval stage of Helicoverpa armigera field strain Pitoa isolated from maize plant to LD50 for fourth-instar larval stage of pyrethroid-susceptible Helicoverpa armigera laboratory strain BK-77
# Helicoverpa armigera [11] = assay: Resistance factor, ratio of LD50 for fourth-instar larval stage of Helicoverpa armigera field strain Gaschiga isolated from tomato plant to LD50 for fourth-instar larval stage of pyrethroid-susceptible Helicoverpa armigera laboratory strain BK-77
# Helicoverpa armigera [12] = assay: Insecticidal activity against fourth-instar larval stage of Helicoverpa armigera field strain Pitoa isolated from maize plant assessed as mortality applied topically onto thorax measured after 48 hr
# Helicoverpa armigera [13] = assay: Insecticidal activity against fourth-instar larval stage of Helicoverpa armigera field strain Ngong isolated from cotton plant assessed as mortality applied topically onto thorax measured after 48 hr
Structure (SMILES),Ratio (Helicoverpa armigera [1]),Ratio (Helicoverpa armigera [2]),LD50 (Helicoverpa armigera [3]) [microgAi/g],LD50 (Helicoverpa armigera [4]) [microgAi/g],Ratio (Helicoverpa armigera [5]),Ratio (Helicoverpa armigera [6]),LD50 (Helicoverpa armigera [7]) [microgAi/g],LD50 (Helicoverpa armigera [8]) [microgAi/g],LD50 (Helicoverpa armigera [9]) [microgAi/g],Ratio (Helicoverpa armigera [10]),Ratio (Helicoverpa armigera [11]),LD50 (Helicoverpa armigera [12]) [microgAi/g],LD50 (Helicoverpa armigera [13]) [microgAi/g]
CC1(C)[C@H](C(=O)O[C@H](C#N)c2cccc(Oc3ccccc3)c2)[C@@H]1C=C(Br)Br [DELTAMETHRIN],60,756,3,15.8,134,2972,37.8,0.05,148.6,590,316,29.5,6.7
Clc1ccc(C(c2ccc(Cl)cc2)C(Cl)(Cl)Cl)cc1 [CHLOROPHENOTHANE],1,1.3,26.7,37.4,1.4,1,34.8,24.3,26.1,1.9,1.4,48.9,36.8
CCCSP(=O)(OCC)Oc1ccc(Br)cc1Cl (stereo not drawn) [PROFENOFOS],,7.9,,24.3,4,3.9,36.2,4.6,17.7,4.2,5.3,19.5,18.5
O=S1OCC2C(CO1)C1(Cl)C(Cl)=C(Cl)C2(Cl)C1(Cl)Cl (stereo not drawn) [ENDOSULFAN],,1,,25.9,0.1,0.7,36.2,37.6,27.5,1,0.7,37.9,34
